Target: T1, alternative oxidase (AOX) (Trypanosoma brucei, UniProt Q26710)
T1 construct: single-subunit quinol oxidase reconstituted into proteoliposomes
Assay: coupled NADH:O2 oxidoreduction in CI/Q10/AOX proteoliposomes
Format: biochemical
Conditions: complex I rate determining; Q10H2 formed in the membrane by complex I

T1 sequence (Q26710 25-329): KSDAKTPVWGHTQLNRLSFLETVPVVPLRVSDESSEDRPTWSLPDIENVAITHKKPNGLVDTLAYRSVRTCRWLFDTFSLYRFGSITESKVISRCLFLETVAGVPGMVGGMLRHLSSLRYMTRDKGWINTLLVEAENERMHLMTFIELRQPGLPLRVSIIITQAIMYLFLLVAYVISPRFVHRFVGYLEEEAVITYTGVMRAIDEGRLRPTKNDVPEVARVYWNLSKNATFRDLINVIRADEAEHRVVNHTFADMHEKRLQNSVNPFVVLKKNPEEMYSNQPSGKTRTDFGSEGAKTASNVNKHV

COc1c(O)c(C)c(C/C=C(\C)CC/C=C(\C)CC/C=C(\C)CC/C=C(\C)CC/C=C(\C)CC/C=C(\C)CC/C=C(\C)CC/C=C(\C)CC/C=C(\C)CCC=C(C)C)c(O)c1OC [Q10H2]
coupled NADH:O2 oxidoreduction in CI/Q10/AOX proteoliposomes: AOX reoxidizes the Q10H2 and reduces O2 to H2O

— publication PMC4954055, “A Self‐Assembled Respiratory Chain that Catalyzes NADH Oxidation by Ubiquinone‐10 Cycling between Complex I and the Alternative Oxidase” (Angewandte Chemie (International Ed. in English), 2015)
